Data set [1] can be described thus: Inhalation studies, single dose and 14 day repeated dose. The conditions noted are these: cynomolgus monkey, in vivo, inhaled or intranasal; 14 day repeated dose; read-out: highest inhaled dose tested without drug-related findings. The procedure: Inhalation studies of single dose or repeated dosing were conducted in dog and cynomolgus monkey. […] These doses were 25 mg/kg/d in a 7 day repeated dose study in the dog, 80 mg/kg in a single dose study in the monkey, and 30 mg/kg/day in a 14 day repeated dose in the monkey.

A short description of data set [2]: Phase 1 single and multiple ascending dose trial of nebulized CA28 in healthy volunteers. It is filed as in vivo, human. The procedure:
In the single ascending dose part of the trial, 16 subjects were enrolled in four cohorts of four subjects each.
Four subjects were enrolled in the first cohort of the multiple ascending dose part of the trial. These subjects were to receive 14 consecutive days of treatment with a 60 mg/day dose of the drug. […] The trial was paused and subsequently resumed, with subjects receiving 30 mg/day. […] The trial was then terminated.
Both subjects responded within hours to first-line antibiotic treatment, which is indicative of bacterial pathogenesis. In this trial, subjects were vaccinated against Neisseria meningitides and closely monitored for signs of infections. While the bacterial cultures were all negative, it is believed that Haemophilus influenzae or Streptococcus pneumoniae might have been implicated in the episodes of fever that were observed because C3 deficient individuals are known to be at increased risk of infection with Neisseria meningitidis, Haemophilus influenzae and Streptococcus pneumoniae. Vaccines against these three pathogens are available, and it is believed that the risk of infection can be addressed by vaccination, potentially with addition of prophylactic antibiotics (e.g., penicillin V).

Data set [3] deals with alternative pathway-mediated erythrocyte lysis. The following applies: alternative pathway-mediated erythrocyte lysis assay (WO2004/026328); cited from earlier work.
Data set [4] relates to complement activation. The following applies: relative to compstatin amidated at the C-terminus; published data; cited from earlier work.

In the case of `CC[C@H](C)[C@H](NC(C)=O)C(=O)N[C@H]1CSSC[C@@H](C(=O)N[C@H](C(N)=O)[C@@H](C)O)NC(=O)[C@H](CCCNC(=N)N)NC(=O)[C@H](Cc2cnc[nH]2)NC(=O)[C@H](C)NC(=O)CNC(=O)[C@H](Cc2c[nH]c3ccccc23)NC(=O)[C@H](CC(=O)O)NC(=O)[C@H](CCC(N)=O)NC(=O)[C@H](Cc2cn(C)c3ccccc23)NC(=O)[C@H](C(C)C)NC1=O` [CA28], in data set [1], the NOAEL at 336 h amounted to 30 mg/kg/day. In addition, the “adverse event possibly related to pharmacology” value was “Another subject developed signs and symptoms consistent with a potential bacterial infection” in data set [2] (30 mg/day inhaled, after 10 days of treatment); “one subject developed signs and symptoms consistent with a potential bacterial infection” in data set [2] (60 mg/day inhaled, following nine days of treatment). In data set [2] (single inhaled dose 20, 60, 150 or 350 mg), the safety and tolerability entry was “well tolerated and no serious adverse events were reported”. With `CC[C@H](C)[C@H](N)C(=O)N[C@H]1CSSC[C@@H](C(=O)N[C@H](C(N)=O)[C@@H](C)O)NC(=O)[C@H](CCCN=C(N)N)NC(=O)[C@H](Cc2cnc[nH]2)NC(=O)[C@H](Cc2cnc[nH]2)NC(=O)CNC(=O)[C@H](Cc2c[nH]c3ccccc23)NC(=O)[C@H](CC(=O)O)NC(=O)[C@H](CCC(N)=O)NC(=O)[C@H](C(C)C)NC(=O)[C@H](C(C)C)NC1=O` [Compstatin], the half-inhibitory concentration (IC50) in data set [3] is 12 µM. With “Ac-ICV(1-Nal)QDWGAHRCT-COOH [Ac V4(1-Nal)/H9A-OH]”, in data set [4], the Activity over compstatin is 30xmore. For the molecule “Ac-ICV(2-Igl)QDWGAHRCT-CONH2 [Ac-V42Igl/H9A]”, in data set [4], the Activity over compstatin is 39xmore.

As to “Ac-ICV(2-Igl)QDWGAHRCT-COOH [Ac-V42Igl/H9A-OH]”, the Activity over compstatin in data set [4] is reported as 37xmore. Consider “Ac-ICV(2-Nal)QDWGAHRCT-CONH2 [Ac-V4(2-Nal)/H9A]”, for which, in data set [4], the Activity over compstatin was 99xmore. For “Ac-ICV(2-Nal)QDWGAHRCT-COOH [Ac V4(2-Nal)/H9A-OH]”, the Activity over compstatin in data set [4] is 38xmore. As for “Ac-ICV(5-methyl-W)QDWGAHRCT-CONH2 [Ac-V4(5-MeW)/H9A]”, the Activity over compstatin in data set [4] is 67xmore.

In the case of “Ac-ICV(5fW)QDWGAHRCT-CONH2 [Ac-V4(5fW)/H9A]”, the Activity over compstatin in data set [4] is recorded as 31xmore. Take “Ac-ICV(Bpa)QDWGAHRCT-CONH2 [Ac-V4(Bpa)/H9A]”: in data set [4], the Activity over compstatin is on record as 86xmore. Turning to “Ac-ICV(Bpa)QDWGAHRCT-COOH [Ac-V4(Bpa)/H9A-OH]”, in data set [4], the Activity over compstatin is 49xmore. Take “Ac-ICV(Bta)QDWGAHRCT-CONH2 [Ac-V4(Bta)/H9A]”: the Activity over compstatin in data set [4] is reported as 64xmore. For the molecule “Ac-ICV(Bta)QDWGAHRCT-COOH [Ac-V4(Bta)/H9A-OH]”, in data set [4], the Activity over compstatin is 65xmore. Turning to “Ac-ICVDhtQDWGAHRCT-COOH [Ac-V4Dht/H9A-OH]”, in data set [4], the Activity over compstatin is listed as 5xmore. Consider Ac-ICVVQDWGHHRCT-CONH2 [Ac-compstatin], for which, in data set [4], the Activity over compstatin was 3xmore. Consider Ac-ICVWQDWGAHRCT-CONH2 [Ac-V4W/H9A], for which the Activity over compstatin in data set [4] was 45xmore. Turning to “Ac-ICVWQDWGAHRCdT-COOH [Ac-V4W/H9A/T13dT-OH]”, the Activity over compstatin in data set [4] was 55xmore. Regarding Ac-ICVYQDWGAHRCT-CONH2 [Ac-V4Y/H9A], the Activity over compstatin in data set [4] is 14xmore. Consider “H-GICV(6fW)QD(6fW)GAHRCTN-COOH (GICVXQDXGAHRCTN; not fully specified; 6-fluoro-Trp at V4 and W7; SITE 1 N-term H; MOD_RES 5 6-fluoro-L-tryptophan; MOD_RES 8 6-fluoro-L-tryptophan; SITE 15 C-term COOH) [+G/V4(6fW)/W7(6fW)H9A+N-OH]”, for which, in data set [4], the Activity over compstatin was 126xmore.

As usually defined, the IC50 is the concentration that gives 50% inhibition.
